SMILES strings stand for the structures. pIC50: −log10 of the molar value. Read-outs that look alike come from different tables or passages of the source. Bounds are passed on as bounds.

One assay has as its system MOLT-4. The assay is described as follows: Cell viability assay (MTS) in MOLT-4 cells. Type of assay: cell-based. To be noted: Homo sapiens, read-out: Anti-Cancer Activity IC50 (48 hr) MOLT-4. The protocol: (§1) Acute lymphoblastic leukemia cells (MOLT-4 and RS4; 11) were incubated with increasing concentrations of Bcl-xL degraders for 48 h. Cell viability was measured by tetrazolium-based MTS assay.

The next assay has as its system RS4; 11. As to the kind of experiment: Cell viability assay (MTS) in RS4; 11 cells. Type of assay: cell-based. To be noted: Homo sapiens, read-out: Anti-Cancer Activity IC50 (48 hr) RS4, 11. Here is the method: as §1

On to `Cc1ncsc1-c1ccc([C@H](C)NC(=O)[C@@H]2C[C@@H](O)CN2C(=O)[C@@H](NC(=O)CCCCCCS(=O)(=O)N2CCN(C[C@]3(C)CCC(c4ccc(Cl)cc4)=C(CN4CCN(c5ccc(C(=O)NS(=O)(=O)c6ccc(N[C@H](CCN7CCCOCC7)CSc7ccccc7)c(S(=O)(=O)C(F)(F)F)c6)cc5)CC4)C3)CC2)C(C)(C)C)cc1` [Compound 96, (2S,4R)-1-((S)-2-(7-((4-(((R)-6-((4-(4-(((4-(((R)-4-(1,4-oxazepan-4-yl)-1-(phenylthio)butan-2-yl)amino)-3-((trifluoromethyl)sulfonyl)phenyl)sulfonyl)carbamoyl)phenyl)piperazin-1-yl)methyl)-4′-chloro-4-methyl-2,3,4,5-tetrahydro-[1,1′-biphenyl]-4-yl)methyl)piperazin-1-yl)sulfonyl)heptanamido)-3,3-dimethylbutanoyl)-4-hydroxy-N—((S)-1-(4-(4-methylthiazol-5-yl)phenyl)ethyl)pyrrolidine-2-carboxamide], for which the pIC50 in the assay with MOLT-4 (MOLT-4, Table 2, 48 hr, MTS) was greater than 7.70; in the assay on RS4; 11 (RS4-11, Table 2, 48 hr, MTS), greater than 7.70.

On to `Cc1ncsc1-c1ccc([C@H](C)NC(=O)[C@@H]2C[C@@H](O)CN2C(=O)[C@@H](NC(=O)CC(=O)N2CCC(S(=O)(=O)N3CCN(C[C@]4(C)CCC(c5ccc(Cl)cc5)=C(CN5CCN(c6ccc(C(=O)NS(=O)(=O)c7ccc(N[C@H](CCN8CCCOCC8)CSc8ccccc8)c(S(=O)(=O)C(F)(F)F)c7)cc6)CC5)C4)CC3)CC2)C(C)(C)C)cc1` [Compound 100], for which the pIC50 with MOLT-4 (MOLT-4, Table 2, 48 hr, MTS) is 6.30 to 7.00; in the assay on RS4; 11 (RS4-11, Table 2, 48 hr, MTS) it was 7.00 to 7.70.

As to `Cc1ncsc1-c1ccc([C@H](C)NC(=O)[C@@H]2C[C@@H](O)CN2C(=O)[C@@H](NC(=O)CCS(=O)(=O)N2CCN(C[C@]3(C)CCC(c4ccc(Cl)cc4)=C(CN4CCN(c5ccc(C(=O)NS(=O)(=O)c6ccc(N[C@H](CCN7CCCOCC7)CSc7ccccc7)c(S(=O)(=O)C(F)(F)F)c6)cc5)CC4)C3)CC2)C(C)(C)C)cc1` [Compound 109], the pIC50 with MOLT-4 (MOLT-4, Table 2A, 48 hr, MTS) was 6.30 to 7.00; with RS4; 11 (RS4-11, Table 2A, 48 hr, MTS), 7.00 to 7.70.

Regarding `Cc1ncsc1-c1ccc([C@H](C)NC(=O)[C@@H]2C[C@@H](O)CN2C(=O)[C@@H](NC(=O)CCCCS(=O)(=O)N2CCN(C[C@]3(C)CCC(c4ccc(Cl)cc4)=C(CN4CCN(c5ccc(C(=O)NS(=O)(=O)c6ccc(N[C@H](CCN7CCCOCC7)CSc7ccccc7)c(S(=O)(=O)C(F)(F)F)c6)cc5)CC4)C3)CC2)C(C)(C)C)cc1` [Compound 110], the pIC50 in the assay on MOLT-4 (MOLT-4, Table 2A, 48 hr, MTS) is 7.00 to 7.70; in the assay on RS4; 11 (RS4-11, Table 2A, 48 hr, MTS) it was greater than 7.70.

`Cc1ncsc1-c1ccc([C@H](C)NC(=O)[C@@H]2C[C@@H](O)CN2C(=O)[C@@H](NC(=O)COCCCNC(=O)c2ccc(N3CCN(C[C@]4(C)CCC(c5ccc(Cl)cc5)=C(CN5CCN(c6ccc(C(=O)NS(=O)(=O)c7ccc(N[C@H](CCN8CCCOCC8)CSc8ccccc8)c(S(=O)(=O)C(F)(F)F)c7)cc6)CC5)C4)CC3)nn2)C(C)(C)C)cc1` [Compound 111]: the pIC50 in the assay on MOLT-4 (MOLT-4, Table 2A, 48 hr, MTS) is greater than 7.70; in the assay on RS4; 11 (RS4-11, Table 2A, 48 hr, MTS) it was greater than 7.70.

As to `Cc1ncsc1-c1ccc([C@H](C)NC(=O)[C@@H]2C[C@@H](O)CN2C(=O)[C@@H](NC(=O)CN(C)CCCNC(=O)c2ccc(N3CCN(C[C@]4(C)CCC(c5ccc(Cl)cc5)=C(CN5CCN(c6ccc(C(=O)NS(=O)(=O)c7ccc(N[C@H](CCN8CCCOCC8)CSc8ccccc8)c(S(=O)(=O)C(F)(F)F)c7)cc6)CC5)C4)CC3)nn2)C(C)(C)C)cc1` [Compound 112], the pIC50 was 7.00 to 7.70 in the assay with MOLT-4 (MOLT-4, 48 h) and greater than 7.70 in the assay on RS4; 11 (RS4-11, 48 h).

Consider `Cc1ncsc1-c1ccc([C@H](C)NC(=O)[C@@H]2C[C@@H](O)CN2C(=O)[C@@H](NC(=O)CN2CCN(CCNC(=O)c3ccc(CN4CCN(C[C@]5(C)CCC(c6ccc(Cl)cc6)=C(CN6CCN(c7ccc(C(=O)NS(=O)(=O)c8ccc(N[C@H](CCN9CCCOCC9)CSc9ccccc9)c(S(=O)(=O)C(F)(F)F)c8)cc7)CC6)C5)CC4)nc3)CC2)C(C)(C)C)cc1` [Compound 114], for which the pIC50 is greater than 7.70 in the assay with MOLT-4 (MOLT-4, Table 2A, 48 hr, MTS) and greater than 7.70 with RS4; 11 (RS4-11, Table 2A, 48 hr, MTS).

As for `Cc1ncsc1-c1ccc([C@H](C)NC(=O)[C@@H]2C[C@@H](O)CN2C(=O)[C@@H](NC(=O)CN2CCN(C(=O)CC(=O)N3CCN(C[C@]4(C)CCC(c5ccc(Cl)cc5)=C(CN5CCN(c6ccc(C(=O)NS(=O)(=O)c7ccc(N[C@H](CCN8CCCOCC8)CSc8ccccc8)c(S(=O)(=O)C(F)(F)F)c7)cc6)CC5)C4)CC3)CC2)C(C)(C)C)cc1` [Compound 115], the pIC50 is greater than 7.70 in the assay on MOLT-4 (MOLT-4, 48 h) and greater than 7.70 in the assay with RS4; 11 (RS4-11, 48 h).

Consider `Cc1ncsc1-c1ccc([C@H](C)NC(=O)[C@@H]2C[C@@H](O)CN2C(=O)[C@@H](NC(=O)CCCCC(=O)N2CCC(C3CCN(C[C@]4(C)CCC(c5ccc(Cl)cc5)=C(CN5CCN(c6ccc(C(=O)NS(=O)(=O)c7ccc(N[C@H](CCN8CCCOCC8)CSc8ccccc8)c(S(=O)(=O)C(F)(F)F)c7)cc6)CC5)C4)CC3)CC2)C(C)(C)C)cc1` [Compound 116], for which the pIC50 is greater than 7.70 with MOLT-4 (MOLT-4, Table 2A, 48 hr, MTS) and greater than 7.70 with RS4; 11 (RS4-11, Table 2A, 48 hr, MTS).

As to `Cc1ncsc1-c1ccc([C@H](C)NC(=O)[C@@H]2C[C@@H](O)CN2C(=O)[C@@H](NC(=O)CN(C)CCC(=O)N2CCC(C3CCN(C[C@]4(C)CCC(c5ccc(Cl)cc5)=C(CN5CCN(c6ccc(C(=O)NS(=O)(=O)c7ccc(N[C@H](CCN8CCCOCC8)CSc8ccccc8)c(S(=O)(=O)C(F)(F)F)c7)cc6)CC5)C4)CC3)CC2)C(C)(C)C)cc1` [Compound 117], the pIC50 is 7.00 to 7.70 with MOLT-4 (MOLT-4, Table 2A, 48 hr, MTS) and greater than 7.70 in the assay with RS4; 11 (RS4-11, Table 2A, 48 hr, MTS).

For `Cc1ncsc1-c1ccc([C@H](C)NC(=O)[C@@H]2C[C@@H](O)CN2C(=O)[C@@H](NC(=O)CN(C)CC(=O)N2CCC(C3CCN(C[C@]4(C)CCC(c5ccc(Cl)cc5)=C(CN5CCN(c6ccc(C(=O)NS(=O)(=O)c7ccc(N[C@H](CCN8CCCOCC8)CSc8ccccc8)c(S(=O)(=O)C(F)(F)F)c7)cc6)CC5)C4)CC3)CC2)C(C)(C)C)cc1` [Compound 118], the pIC50 in the assay on MOLT-4 (MOLT-4, Table 2A, 48 hr, MTS) is greater than 7.70; in the assay with RS4; 11 (RS4-11, Table 2A, 48 hr, MTS) it was greater than 7.70.

As to `Cc1ncsc1-c1ccc([C@H](C)NC(=O)[C@@H]2C[C@@H](O)CN2C(=O)[C@@H](NC(=O)CCCCC(=O)N2CCN(C3CCN(C[C@]4(C)CCC(c5ccc(Cl)cc5)=C(CN5CCN(c6ccc(C(=O)NS(=O)(=O)c7ccc(N[C@H](CCN8CCCOCC8)CSc8ccccc8)c(S(=O)(=O)C(F)(F)F)c7)cc6)CC5)C4)CC3)CC2)C(C)(C)C)cc1` [Compound 119], the pIC50 with MOLT-4 (MOLT-4, Table 2A, 48 hr, MTS) was greater than 7.70; in the assay with RS4; 11 (RS4-11, Table 2A, 48 hr, MTS) it was greater than 7.70.

Regarding `Cc1ncsc1-c1ccc([C@H](C)NC(=O)[C@@H]2C[C@@H](O)CN2C(=O)[C@@H](NC(=O)CCCCC(=O)N2CCC(N3CCN(C[C@]4(C)CCC(c5ccc(Cl)cc5)=C(CN5CCN(c6ccc(C(=O)NS(=O)(=O)c7ccc(N[C@H](CCN8CCCOCC8)CSc8ccccc8)c(S(=O)(=O)C(F)(F)F)c7)cc6)CC5)C4)CC3)CC2)C(C)(C)C)cc1` [Compound 120], the pIC50 in the assay with MOLT-4 (MOLT-4, Table 2A, 48 hr, MTS) is greater than 7.70; in the assay on RS4; 11 (RS4-11, Table 2A, 48 hr, MTS), greater than 7.70.

Regarding `Cc1ncsc1-c1ccc([C@H](C)NC(=O)[C@@H]2C[C@@H](O)CN2C(=O)[C@@H](NC(=O)CCCCCCC(=O)N2C(C)CN(C[C@]3(C)CCC(c4ccc(Cl)cc4)=C(CN4CCN(c5ccc(C(=O)NS(=O)(=O)c6ccc(N[C@H](CCN7CCCOCC7)CSc7ccccc7)c(S(=O)(=O)C(F)(F)F)c6)cc5)CC4)C3)CC2C)C(C)(C)C)cc1` (stereo partly shown) [compound 83], the pIC50 with MOLT-4 (MOLT-4, Table 2, 48 hr, MTS) is 7.00 to 7.70; with RS4; 11 (RS4-11, Table 2, 48 hr, MTS) it was 6.30 to 7.00.

Source of the values: patent publication US20250154141A1 (University of Florida Research Foundation, Incorporated, priority 2021, published 2025).
